This note sets out measurements from patent US10195204B2, “Methods of treating hemoglobinopathies” (DUKE UNIVERSITY, priority 2011, dated 2019).

What all share (assay type): cell-based, human
Assay [1] concerns glycophorin A phosphorylation. The experiment in a line: 32P labeling, glycophorin A immunoprecipitation and phosphorylation in SS RBCs. From the text:
Glycophorin A phosphorylation and immunoprecipitation. […] Cells were then washed 4 times. […] Blots were immunostained with anti-glycophorin A mAb.

Assay [2] concerns AA RBC membrane ghost phosphopeptides. In words: Label-free quantitative phosphoproteomic analysis of normal (AA) RBC membrane ghosts. The protocol: Ghosted RBCs were spun at 14,000 rpm for 15 min at 4° C. to pellet membranes. Membrane pellets were washed with 1 mL 50 mM ammonium bicarbonate (pH 8.0) with vortexing and were then spun at 14,000 rpm for 30 min at 4° C. The supernatant was then removed and 500 μL of 50 mM ammonium bicarbonate with μL 0.2% acid-labile surfactant (ALS-1) in 50 mM ammonium bicarbonate (pH 8.0) was added. Samples were subjected to probe sonication three-times for 5 sec with cooling on ice between and insoluble material was cleared by centrifugation at 14,000 rpm for 30 mins at 4° C. Samples were normalized to approximately 2 μg/μl following a micro-Bradford assay (Pierce Bioscience), and were reduced with a final concentration of 10 mM dithiothreitol at 80° C. for 20 min. Samples were then alkylated with a final concentration of 20 mM iodoacetamide at room temperature for 45 min and trypsin was added to a final ratio of 1-to-50 (w/w) enzyme-to-protein and allowed to digest at 37° C. for 18 hr. To remove ALS-1, samples were acidified to pH 2.0 with neat TFA, incubated at 60° C. for 2 hrs and spun at 14,000 rpm to remove hydrolyzed ALS-1. Samples were either subjected directly to LC-MS analysis or subjected to a TiO2 based phosphopeptide enriched protocol.
To enrich for phosphorylated peptides prior to LC-MS analysis, either 1,125 μg and 970 μg of total digested protein from RBC ghosts co-incubated with recombinant active ERK2 experiments and experiments using epinephrine-treated cells, respectively, were brought to near dryness using vacuum centrifugation and then resuspended in 200 μL of 80% acetonitrile, 1% TFA, 50 mg/ml MassPrep Enhancer (pH 2.5) (Waters Corp. Milford, Mass.). Samples were loaded onto an in-house packed TiO2 spin column (Protea Biosciences) with a 562 μg or 485 μg binding capacity for active ERK2 treated or epinephrine treated experiments, respectively. Samples were washed twice with 200 μL 80% acetonitrile, 1% TFA, 50 mg/ml MassPrep Enhancer (pH 2.5) followed by two washes with 200 μL 80% acetonitrile, 1% TFA (pH 2.5). Retained peptides were eluted twice with 100 μL 20% acetonitrile, 5% aqueous ammonia (pH 10.0), acidified to pH 3 with neat formic acid and then brought to dryness using vacuum centrifugation. […]
MS data from each phosphopeptide enriched sample was acquired on a Thermo LTQ-Orbitrap XL mass spectrometer operating in positive-ion mode with an electrospray voltage of 2.0 kV with real-time lockmass correction on ambiant polycyclodimethylsiloxane (m/z 445.120025) enabled. […] Each sample was analyzed four-times, one of which was used for additional qualitative identifications only and was not included in the quantitative analysis, with product ions above a threshold of 500 counts were acquired for the top 5 most intense ions in the linear ion trap. […]

Assay [3] relates to ERK1/2 phosphorylation in SS RBCs. The experiment in a line: ERK1/2 phosphorylation in SS RBCs, Western blot (phosphoERK normalized to total ERK). The protocol: Aliquots of packed RBCs were treated with various reagents to affect cAMP signaling or protein phosphorylation. […] Treated RBCs were then washed 5 times with 4 ml PBS with Ca^2+ and Mg^2+. Normal RBCs were used as controls. Prior to adhesion assays, treated RBCs were labeled with PKH 26 red fluorescent cell linker kit (Sigma), following the manufacturer's instructions.
Treated packed RBCs were lysed with hypotonic buffer (5 mM Na2HPO4+1 mM EDTA+0.1% NaN3, pH 8) containing 2 mM phenylmethylsulphonylfluoride (PMSF, Sigma), phosphatase inhibitor cocktail (Sigma) and protease inhibitor cocktail (Sigma). Protein separation by polyacrylamide gel electrophoresis using equal amounts of total RBC membrane ghost proteins per lane, after correcting total protein measurements for residual hemoglobin content, and Western blot^19 using the appropriate Ab were then performed. Mouse 3T3/A31 fibroblast lysate was used as a ERK1/2 positive control for immunoblots. For total ERK1/2, membranes blotted with anti-phosphoERK Ab were stripped and reexposed to Western blotting using anti-ERK1/2 Ab. Bands were analyzed densitometrically using ImageJ software downloaded from the NIH website. PhosphoERK1/2 data were normalized according to total ERK1/2 and are presented as fold change in ERK phosphorylation.

Take `CNC[C@H](O)c1ccc(O)c(O)c1` [epinephrine]: the “increase in glycophorin A phosphorylation over sham-treated SS RBCs” value in assay [1] (epinephrine in the presence of SPI) turned out to be 2.93±0.35 fold. Moreover, in assay [2] (AA RBCs, epinephrine 30 min vs 1 min), the “change in phosphorylation of the CAP1 serine” value is “+1.4 fold”. In assay [3], the “ERK phosphorylation vs 1 min exposure” value is recorded as “decreased”, the “ERK phosphorylation vs sham-treated” value was “markedly increased”, the “fold increase in ERK phosphorylation” value came to 2.1±0.1 fold and the “increase in ERK phosphorylation above basal levels” value was found to be 2±0.17 fold. Moreover, the “patients whose SS RBCs exhibited more than 1.5-fold elevation in ERK phosphorylation (responders)” value in assay [3] was determined as 40%.

With `N#CC(=C(/N)Sc1ccccc1N)/C(C#N)=C(\N)Sc1ccccc1N` [U0126], the “effect on combined effect of epinephrine and SPI on glycophorin A phosphorylation” value in assay [1] (SS RBCs pre-incubated with 10 μM U0126 for 1 h) is “significantly decreased”. Besides, the “effect on Ser540/Ser542 doubly phosphorylated peptide within protein 4.1” value in assay [2] (AA RBCs treated with U0126) is reported as “did not induce a decrease”. The “effect on forskolin-induced ERK1/2 phosphorylation” value in assay [3] (SS RBCs) is on record as “prevented”. Moreover, the “effect on epinephrine-induced ERK1/2 phosphorylation” value in assay [3] (SS RBCs pre-incubated with inhibitor, then 20 nM epinephrine 1 min) is “significantly inhibited”. Further, the “effect on PTx-induced ERK phosphorylation” value in assay [3] (SS RBCs, 2 μg/ml PTx) is “blocked”.
